# Reference: patent US20230003721A1, “MITOTHERAPEUTICS FOR THE TREATMENT OF BRAIN DISORDERS” (The University of Florida Research Foundation, Inc., priority 2019, published 2023)
# Where a name gives a salt, the structure may show the parent alone.
# System: primary neurons
# Experiment: TMRM fluorescence assay of inner mitochondrial membrane potential (ΔΨm)
# Conditions: 12.5 μM, 4 h
# Protocol: Mitochondrial dyes. To assay the electrochemical potential across the inner mitochondrial membrane of cultured cells, we used the cell-permeant dye tetramethylrhodamine methyl ester (TMRM). For co-localization studies with Mt-GFP, TMRM was used at 20 nM on DIV14 and incubated for 30 min prior to imaging. For the orthogonal screen of compounds, TMRM was added to primary neurons on DIV13 at 10 nM, one hr prior to pintooling selected compounds, and incubated for 24 hr. Cells were washed 2× with pre-warmed fresh feeding media without B27 before measurements with a plate reader.
# (§1) A CLARIOstar (BMG LABTECH) microplate reader was used to measure fluorescence of TMRM and luminescence produced from the ATP.
# (§2) Mitochondrial membrane potential (Δψm) and luminescence-based ATP assays. […] Changes of ΔΨm in each well were monitored using the mitochondrial-specific, fluorescent dye TMRM (tetramethyl rhodamine, methyl ester; Molecular Probes) and measured using a CLARIOstar plate reader. […] This concentration was used throughout our experiments. […] Wells in columns 1 and 24 were not loaded with TMRM; these served to measure background signal which was subtracted from the wells to which TMRM was added. To measure the total ATP levels in neurons we utilized the CellTiter-Glo® luminescence-based ATP assay (Promega). DIV13 primary neurons were cultured for 24 h with either DMSO carrier or compound treatment, followed by removing 55 μl culture medium from each well. Plates were maintained at room temperature for 25 m, and 25 μl of CellTiter-Glo® Reagent with the substrate luciferin was then added to each well (Promega). Plates were covered with aluminum foil and shaken vigorously on an orbital shaker for 10 m at 200 rpm and maintained at room temperature for an additional 2 m in dark before being read with the plate reader set to the luminescence mode.
# Compound library and hit picking rules. We screened 2400 compounds from the MicroSource Spectrum library. […] FIGS. 13A-13E provide details of the assays used from which hit picking rules were made. In essence, the average fluorescence for each compound in the TMRM assay was determined and compared to the average fluorescence for compounds in the population on each assay plate to produce a Z-score. The Z-scores for each individual compound assayed across the four replicate plates was then averaged.
row,SMILES,hit in TMRM primary screen when assayed at 4 h
1,CN1CCC(=C2c3ccccc3CC(=O)c3sccc32)CC1 [ketotifen fumarate],ketotifen fumarate*
2,CC(=O)O[C@]1(C(C)=O)CC[C@H]2[C@@H]3C[C@H](C)C4=CC(=O)CC[C@]4(C)[C@H]3CC[C@@]21C [medroxyprogesterone acetate],medroxyprogesterone acetate*
3,CCN(CC)CCOC(=O)C(Cc1cccc2ccccc12)CC1CCCO1 (stereo not drawn) [nafronyl oxalate],nafronyl oxalate*

# Same assay, conditions: Mus musculus, Primary neuron, read-out: TMRM (Effect-size)
row,SMILES,Emax [%]
1,CCN(CC)CC(=O)Nc1c(C)cccc1C [lidocaine hydrochloride],17.4
2,CNCCC=C1c2ccccc2CCc2ccccc21 [nortriptyline hydrochloride],21
3,OC(CCN1CCCC1)(c1ccccc1)C1CCCCC1 (stereo not drawn) [procyclidine hydrochloride],23.3

# Same assay, conditions: Mus musculus, Primary neuron, read-out: TMRM-EC50
row,SMILES,EC50 [nM]
1,CCN(CC)CC(=O)Nc1c(C)cccc1C [lidocaine hydrochloride],1890
2,CNCCC=C1c2ccccc2CCc2ccccc21 [nortriptyline hydrochloride],550
3,OC(CCN1CCCC1)(c1ccccc1)C1CCCCC1 (stereo not drawn) [procyclidine hydrochloride],850

# Same assay, conditions: primary screen, 12.5 μM, 24 h
row,SMILES,TMRM Primary [Z-scores]
1,CN1CCC(=C2c3ccccc3CC(=O)c3sccc32)CC1 [ketotifen fumarate],3.91
2,C=C[C@@](C)(O)CC[C@H]1C(=C)C[C@H](OC(C)=O)[C@H]2C(C)(C)CCC[C@]12C [larixol acetate],3.96
3,CCN(CC)C(=O)[C@@]1(c2ccccc2)C[C@H]1CN [levomilnacipran hydrochloride],3.26
4,CCN(CC)CC(=O)Nc1c(C)cccc1C [lidocaine hydrochloride],3.06
5,CN1[C@@H](CC(=O)c2ccccc2)CCC[C@H]1C[C@H](O)c1ccccc1 [lobeline hydrochloride],6.62
6,CC(=O)O[C@]1(C(C)=O)CC[C@H]2[C@@H]3C[C@H](C)C4=CC(=O)CC[C@]4(C)[C@H]3CC[C@@]21C [medroxyprogesterone acetate],3.66
7,OC(c1cc(C(F)(F)F)nc2c(C(F)(F)F)cccc12)C1CCCCN1 (stereo not drawn) [mefloquine],3.75
8,CCCNC(C)(C)COC(=O)c1ccccc1 [meprylcaine hydrochloride],3.56
9,CCN(CC)CCOC(=O)C(Cc1cccc2ccccc12)CC1CCCO1 (stereo not drawn) [nafronyl oxalate],4.08
10,CN(C/C=C/c1ccccc1)Cc1cccc2ccccc12 [naftifine hydrochloride],3.26
11,OC(CNCC(O)C1CCc2cc(F)ccc2O1)C1CCc2cc(F)ccc2O1 (stereo not drawn) [nebivolol hydrochloride],3.73
12,CCc1nn(CCCN2CCN(c3cccc(Cl)c3)CC2)c(=O)n1CCOc1ccccc1 [nefazodone hydrochloride],4.00
13,CNCCC=C1c2ccccc2CCc2ccccc21 [nortriptyline hydrochloride],3.77
14,OC(CCN1CCCC1)(c1ccccc1)C1CCCCC1 (stereo not drawn) [procyclidine hydrochloride],4.55

# Same assay, conditions: rescreen, 24 h
row,SMILES,TMRM Rescreen [Z-scores]
1,CN1CCC(=C2c3ccccc3CC(=O)c3sccc32)CC1 [ketotifen fumarate],3.98
2,C=C[C@@](C)(O)CC[C@H]1C(=C)C[C@H](OC(C)=O)[C@H]2C(C)(C)CCC[C@]12C [larixol acetate],5.67
3,CCN(CC)C(=O)[C@@]1(c2ccccc2)C[C@H]1CN [levomilnacipran hydrochloride],3.53
4,CCN(CC)CC(=O)Nc1c(C)cccc1C [lidocaine hydrochloride],4.69
5,CN1[C@@H](CC(=O)c2ccccc2)CCC[C@H]1C[C@H](O)c1ccccc1 [lobeline hydrochloride],6.75
6,CC(=O)O[C@]1(C(C)=O)CC[C@H]2[C@@H]3C[C@H](C)C4=CC(=O)CC[C@]4(C)[C@H]3CC[C@@]21C [medroxyprogesterone acetate],3.67
7,OC(c1cc(C(F)(F)F)nc2c(C(F)(F)F)cccc12)C1CCCCN1 (stereo not drawn) [mefloquine],5.54
8,CCCNC(C)(C)COC(=O)c1ccccc1 [meprylcaine hydrochloride],5.91
9,CCN(CC)CCOC(=O)C(Cc1cccc2ccccc12)CC1CCCO1 (stereo not drawn) [nafronyl oxalate],5.89
10,CN(C/C=C/c1ccccc1)Cc1cccc2ccccc12 [naftifine hydrochloride],4.64
11,OC(CNCC(O)C1CCc2cc(F)ccc2O1)C1CCc2cc(F)ccc2O1 (stereo not drawn) [nebivolol hydrochloride],5.29
12,CCc1nn(CCCN2CCN(c3cccc(Cl)c3)CC2)c(=O)n1CCOc1ccccc1 [nefazodone hydrochloride],6.11
13,CNCCC=C1c2ccccc2CCc2ccccc21 [nortriptyline hydrochloride],5.25
14,OC(CCN1CCCC1)(c1ccccc1)C1CCCCC1 (stereo not drawn) [procyclidine hydrochloride],6.91

# System: primary neurons
# Experiment: CellTiter-Glo luminescence-based ATP assay
# Format: cell-based, mouse
# Conditions: ATP orthogonal screen, 24 h
# Protocol: Measurement of ATP production. The total amount of ATP produced by cultured primary neurons was measured by CellTiter-Glo Luminescent Cell Viability Assay (Promega). A recombinant luciferase enzyme catalyzed the mono-oxygenation of luciferin while hydrolyzing ATP produced by the cells and emitting light. We followed the manufacturer's protocol with primary neurons on DIV14.
# as §1, §2
# Compound library and hit picking rules. We screened 2400 compounds from the MicroSource Spectrum library. […] FIGS. 13A-13E provide details of the assays used from which hit picking rules were made. In essence, the average fluorescence for each compound in the TMRM assay was determined and compared to the average fluorescence for compounds in the population on each assay plate to produce a Z-score. The Z-scores for each individual compound assayed across the four replicate plates was then averaged. Because of significant well location effects (outer rows) on each assay plate (FIG. 13G), we selected primary hits as enhancing well fluorescence above the μplate by 3σplate for inner row wells (rows C-N, columns 3-22), and by 2.5σplate for outer row wells (rows A, B, O, P; columns 3-22) (FIG. 14C-D). […] All orthogonal assays employed inner wells of the 384-well plates.
row,SMILES,ATP [Z-scores]
1,CN1CCC(=C2c3ccccc3CC(=O)c3sccc32)CC1 [ketotifen fumarate],5.58
2,C=C[C@@](C)(O)CC[C@H]1C(=C)C[C@H](OC(C)=O)[C@H]2C(C)(C)CCC[C@]12C [larixol acetate],2.67
3,CCN(CC)C(=O)[C@@]1(c2ccccc2)C[C@H]1CN [levomilnacipran hydrochloride],3.87
4,CCN(CC)CC(=O)Nc1c(C)cccc1C [lidocaine hydrochloride],6.98
5,CN1[C@@H](CC(=O)c2ccccc2)CCC[C@H]1C[C@H](O)c1ccccc1 [lobeline hydrochloride],3.67
6,CC(=O)O[C@]1(C(C)=O)CC[C@H]2[C@@H]3C[C@H](C)C4=CC(=O)CC[C@]4(C)[C@H]3CC[C@@]21C [medroxyprogesterone acetate],2.64
7,OC(c1cc(C(F)(F)F)nc2c(C(F)(F)F)cccc12)C1CCCCN1 (stereo not drawn) [mefloquine],5.09
8,CCCNC(C)(C)COC(=O)c1ccccc1 [meprylcaine hydrochloride],6.05
9,CCN(CC)CCOC(=O)C(Cc1cccc2ccccc12)CC1CCCO1 (stereo not drawn) [nafronyl oxalate],5.17
10,CN(C/C=C/c1ccccc1)Cc1cccc2ccccc12 [naftifine hydrochloride],4.65
11,OC(CNCC(O)C1CCc2cc(F)ccc2O1)C1CCc2cc(F)ccc2O1 (stereo not drawn) [nebivolol hydrochloride],6.92
12,CCc1nn(CCCN2CCN(c3cccc(Cl)c3)CC2)c(=O)n1CCOc1ccccc1 [nefazodone hydrochloride],6.30
13,CNCCC=C1c2ccccc2CCc2ccccc21 [nortriptyline hydrochloride],5.66
14,OC(CCN1CCCC1)(c1ccccc1)C1CCCCC1 (stereo not drawn) [procyclidine hydrochloride],7.14

# Same assay, conditions: Mus musculus, Primary neuron; dose response, 15 concentrations from 6 nM to 100 uM
row,SMILES,EC50 [nM]
1,CCN(CC)CC(=O)Nc1c(C)cccc1C [lidocaine hydrochloride],110
2,CNCCC=C1c2ccccc2CCc2ccccc21 [nortriptyline hydrochloride],200
3,OC(CCN1CCCC1)(c1ccccc1)C1CCCCC1 (stereo not drawn) [procyclidine hydrochloride],240

# Same assay, conditions: Mus musculus, Primary neuron; maximal percent increase relative to in-plate DMSO controls, dose response; read-out: ATP (Effect-size)
row,SMILES,Emax [%]
1,CCN(CC)CC(=O)Nc1c(C)cccc1C [lidocaine hydrochloride],15.8
2,CNCCC=C1c2ccccc2CCc2ccccc21 [nortriptyline hydrochloride],16.5
3,OC(CCN1CCCC1)(c1ccccc1)C1CCCCC1 (stereo not drawn) [procyclidine hydrochloride],18.7
